Experimental data reported in PMC10563463 (Cell Transplantation, 2023).

Biological target: recombinant human SUV39H1 (rhSUV39H1) (Homo sapiens, UniProt O43463)
Experiment: biochemical

Chain of recombinant human SUV39H1 (rhSUV39H1) (O43463 whole entry): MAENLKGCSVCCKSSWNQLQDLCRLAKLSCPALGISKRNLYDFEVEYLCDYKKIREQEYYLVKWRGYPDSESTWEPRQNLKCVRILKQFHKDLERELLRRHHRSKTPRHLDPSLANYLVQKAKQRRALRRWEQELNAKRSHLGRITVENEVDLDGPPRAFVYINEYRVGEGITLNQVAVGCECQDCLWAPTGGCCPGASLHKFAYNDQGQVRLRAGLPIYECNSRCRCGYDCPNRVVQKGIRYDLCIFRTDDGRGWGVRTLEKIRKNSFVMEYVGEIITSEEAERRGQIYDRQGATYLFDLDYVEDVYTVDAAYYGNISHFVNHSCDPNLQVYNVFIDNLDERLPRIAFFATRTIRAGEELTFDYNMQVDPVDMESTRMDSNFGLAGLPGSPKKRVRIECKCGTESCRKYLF

Kd: 21.4 µM
SMILES: CC(C)(O)[C@@H]1CC[C@](C)([C@H]2[C@@H](O)C[C@@]3(C)[C@@H]4C[C@H](O[C@@H]5O[C@H](CO)[C@@H](O)[C@H](O)[C@H]5O)[C@H]5C(C)(C)[C@@H](O[C@@H]6OC[C@@H](O)[C@H](O)[C@H]6O)CC[C@@]56C[C@@]46CC[C@]23C)O1 [Astragaloside IV]
